Source: patent US20260317324A1, “BIFUNCTIONAL COMPOUNDS FOR DEGRADING BRAF VIA UBIQUITIN PROTEOSOME PATHWAY” (Nurix Therapeutics, Inc., priority 2023, published 2026)

What was measured:
Assay type in all cases: cell-based
BRAF V600E = target: T1, BRAF V600E (Homo sapiens, UniProt P15056, V600E); assay: BRAF HiBiT degradation assay, C-terminal HiBiT-tagged BRAF V600E A375 cells (clone 1F10), Nano-Glo HiBiT Lytic assay; details: A375 (BRAF V600E); for DC50: DC50 at 50%: fitted conc. at Y=50; for Dmax: A-375, percentage protein degraded at maximal compound effect relative to DMSO
T1 construct: endogenous C-terminal HiBiT fusion tag on BRAF V600E allele; endogenous in cells; host or cells: A375 clone 1F10 (CRISPR-Cas9 knock-in of the HiBiT tag; parental A375 from ATCC)
In short: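 Luminescence read-out: Nano-Glo HiBiT lytic reagent with LgBiT, 10 min at room temperature. Signal normalised to DMSO-treated tagged cells, with wildtype A375 as background. Cells are endogenously tagged BRAF V600E A375 clone 1F10. Compounds were tested from 1 μM to 0.01 nM; Dmax is observed % degraded at maximal effect.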

BRAF D594G = target: T2, BRAF D594G (Homo sapiens, UniProt P15056, D594G); assay: BRAF HiBiT degradation assay, C-terminal HiBiT-tagged BRAF D594G overexpressed in HCT-116 BRAF−/− cells (clone 63), Nano-Glo HiBiT Lytic assay; details: BRAF D594G; for DC50: DC50 at 50%: fitted conc. at Y=50; for Dmax: HCT-116, percentage protein degraded at maximal compound effect relative to DMSO
T2 construct: Horizon Discovery (HCT-116 BRAF−/− cells); host or cells: HCT-116 BRAF−/− cells, clone 63, lentiviral transduction
In short: (§1)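 Cells 3,000/well, 24 h at 37 °C; cpds 1 μM–0.01 nM, 11-pt half-log, duplicate, 0.2% DMSO. Readout: HiBiT lytic luminescence, 10 min at RT. Normalized to DMSO-treated tagged cells, with DMSO-treated wild-type HCT-116 as background. DC50 = fitted concentration at Y=50; Obs. Dmax = % degraded at maximal effect.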

BRAF G466V = target: T3, BRAF G466V (Homo sapiens, UniProt P15056, G466V); assay: BRAF HiBiT degradation assay, C-terminal HiBiT-tagged BRAF G466V overexpressed in HCT-116 BRAF−/− cells (clone 8), Nano-Glo HiBiT Lytic assay; details: BRAF G466V; for DC50: DC50 at 50%: fitted conc. at Y=50; for Dmax: HCT-116, percentage protein degraded at maximal compound effect relative to DMSO
T3 construct: Horizon Discovery (HCT-116 BRAF−/− cells); host or cells: HCT-116 BRAF−/− cells, clone 8, lentiviral transduction
In short: as §1

BRAF G469A = target: T4, BRAF G469A (Homo sapiens, UniProt P15056, G469A); assay: BRAF HiBiT degradation assay, C-terminal HiBiT-tagged BRAF G469A overexpressed in HCT-116 BRAF−/− cells (clone 34), Nano-Glo HiBiT Lytic assay; details: Class 2, BRAF G469A; for DC50: DC50 at 50%: fitted conc. at Y=50; for Dmax: HCT-116, percentage protein degraded at maximal compound effect relative to DMSO
T4 construct: Horizon Discovery (HCT-116 BRAF−/− cells); host or cells: HCT-116 BRAF−/− cells, clone 34, lentiviral transduction
In short: as §1

T4 sequence (P15056 whole entry G469A): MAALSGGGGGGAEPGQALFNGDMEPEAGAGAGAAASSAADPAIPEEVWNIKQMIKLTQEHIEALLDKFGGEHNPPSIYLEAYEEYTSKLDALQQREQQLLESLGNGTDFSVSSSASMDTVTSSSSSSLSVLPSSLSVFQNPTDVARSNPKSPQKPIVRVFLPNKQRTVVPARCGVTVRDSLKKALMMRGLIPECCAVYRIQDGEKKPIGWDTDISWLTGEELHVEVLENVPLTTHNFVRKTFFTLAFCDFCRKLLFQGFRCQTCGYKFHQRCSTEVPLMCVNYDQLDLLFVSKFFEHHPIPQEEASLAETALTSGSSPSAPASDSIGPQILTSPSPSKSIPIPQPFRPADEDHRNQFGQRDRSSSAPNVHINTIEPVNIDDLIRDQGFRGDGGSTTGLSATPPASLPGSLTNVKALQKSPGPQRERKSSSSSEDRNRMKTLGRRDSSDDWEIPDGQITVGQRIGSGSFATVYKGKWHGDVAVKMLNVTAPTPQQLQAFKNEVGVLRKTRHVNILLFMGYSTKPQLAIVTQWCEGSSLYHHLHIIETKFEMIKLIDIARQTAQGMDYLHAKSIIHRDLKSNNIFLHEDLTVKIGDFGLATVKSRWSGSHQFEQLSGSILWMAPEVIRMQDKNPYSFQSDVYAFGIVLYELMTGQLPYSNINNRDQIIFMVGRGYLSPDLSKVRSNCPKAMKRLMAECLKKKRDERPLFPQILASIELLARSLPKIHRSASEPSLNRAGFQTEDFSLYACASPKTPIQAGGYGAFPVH
T1 sequence (P15056 whole entry V600E, the tested form may be a part): as the sequence (P15056 whole entry G469A) above, with A469G, V600E counted along it
T2 sequence (P15056 whole entry D594G): as the sequence (P15056 whole entry G469A) above, with A469G, D594G counted along it
T3 sequence (P15056 whole entry G466V): as the sequence (P15056 whole entry G469A) above, with G466V, A469G counted along it

SMILES	DC50 (BRAF V600E)	Dmax (BRAF V600E)	DC50 (BRAF D594G)	Dmax (BRAF D594G)	DC50 (BRAF G466V)	Dmax (BRAF G466V)	DC50 (BRAF G469A)	Dmax (BRAF G469A)
CCCS(=O)(=O)Nc1cccc(-c2nc(C(C)(C)C)sc2-c2ccnc(Nc3cnn(CC4CCN(C(=O)CN5CCc6cc(C7CCC(=O)NC7=O)ccc6C5)CC4)c3)n2)c1F (racemic) [Compound 119, Rac-N-[3-(2-tert-butyl-5-{2-[(1-{[1-(2-{6-[(3R)-2,6-dioxopiperidin-3-yl]-1,2,3,4-tetrahydroisoquinolin-2-yl}acetyl)piperidin-4-yl]methyl}-1H-pyrazol-4-yl)amino]pyrimidin-4-yl}-1,3-thiazol-4-yl)-2-fluorophenyl]propane-1-sulfonamide]	< 10 nM	> 70%	> 500 nM	30 to 70%	> 500 nM	< 30%	> 500 nM	< 30%
CCCS(=O)(=O)Nc1cccc(-c2nc(C(C)(C)C)sc2-c2ccnc(Nc3ccc4c(c3)CCN(C(=O)CN3CCC(c5ccc(NC6CCC(=O)NC6=O)cc5)CC3)C4)n2)c1F (racemic) [Compound 123, Rac-N-[3-(2-tert-butyl-5-{2-[(2-{2-[4-(4-{[(3R)-2,6-dioxopiperidin-3-yl]amino}phenyl)piperidin-1-yl]acetyl}-1,2,3,4-tetrahydroisoquinolin-6-yl)amino]pyrimidin-4-yl}-1,3-thiazol-4-yl)-2-fluorophenyl]propane-1-sulfonamide]	10 to 50 nM	30 to 70%	> 500 nM	< 30%	> 500 nM	< 30%	> 500 nM	< 30%
CCN(C)S(=O)(=O)Nc1cccc(-c2nc(C(C)(C)C)sc2-c2ccnc(Nc3ccc(N4CCN(C(=O)[C@H]5CC[C@H](CN6CCc7cc(C8CCC(=O)NC8=O)ccc7C6)CC5)CC4)cn3)n2)c1F (mixture of isomers) [Compound 125, Rac-(3S)-3-(2-{[(1r,4r)-4-{4-[6-({4-[2-tert-butyl-4-(3-{[ethyl(methyl)sulfamoyl]amino}-2-fluorophenyl)-1,3-thiazol-5-yl]pyrimidin-2-yl}amino)pyridin-3-yl]piperazine-1-carbonyl}cyclohexyl]methyl}-1,2,3,4-tetrahydroisoquinolin-6-yl)piperidine-2,6-dione]	10 to 50 nM	> 70%	> 500 nM	< 30%	> 500 nM	< 30%	> 500 nM	30 to 70%
CCN(C)S(=O)(=O)Nc1cccc(-c2nc(C(C)(C)C)sc2-c2ccnc(Nc3ccc(N4CCN(CC5CCN(c6ccc(C7CCC(=O)NC7=O)cn6)CC5)CC4)cn3)n2)c1F (racemic) [Compound 126, Rac-(3S)-3-{6-[4-({4-[6-({4-[2-tert-butyl-4-(3-{[ethyl(methyl)sulfamoyl]amino}-2-fluorophenyl)-1,3-thiazol-5-yl]pyrimidin-2-yl}amino)pyridin-3-yl]piperazin-1-yl}methyl)piperidin-1-yl]pyridin-3-yl}piperidine-2,6-dione]	10 to 50 nM	> 70%	< 10 nM	30 to 70%	10 to 50 nM	> 70%	10 to 50 nM	30 to 70%
CCCS(=O)(=O)Nc1cccc(-c2nc(C(C)(C)C)sc2-c2ccnc(NC3CC4(CCN(CC5CCN(c6ccc7c(=O)n(C8CCC(=O)NC8=O)ccc7c6)CC5)CC4)C3)n2)c1F (racemic) [Compound 129, Rac-N-(3-{2-tert-butyl-5-[2-({7-[(1-{2-[(3R)-2,6-dioxopiperidin-3-yl]-1-oxo-1,2-dihydroisoquinolin-6-yl}piperidin-4-yl)methyl]-7-azaspiro[3.5]nonan-2-yl}amino)pyrimidin-4-yl]-1,3-thiazol-4-yl}-2-fluorophenyl)propane-1-sulfonamide]	50 to 500 nM	30 to 70%	> 500 nM	< 30%	> 500 nM	< 30%	> 500 nM	< 30%
CCCS(=O)(=O)Nc1cccc(-c2nc(C(C)(C)C)sc2-c2ccnc(NC3CC4(CCN(C(=O)CN5CCC(c6ccc(NC7CCC(=O)NC7=O)cc6)CC5)CC4)C3)n2)c1F (racemic) [Compound 131, Rac-N-[3-(2-tert-butyl-5-{2-[(7-{2-[4-(4-{[(3R)-2,6-dioxopiperidin-3-yl]amino}phenyl)piperidin-1-yl]acetyl}-7-azaspiro[3.5]nonan-2-yl)amino]pyrimidin-4-yl}-1,3-thiazol-4-yl)-2-fluorophenyl]propane-1-sulfonamide]	10 to 50 nM	> 70%	> 500 nM	< 30%	> 500 nM	30 to 70%	> 500 nM	< 30%
CCCS(=O)(=O)Nc1cccc(-c2nc(C(C)(C)C)sc2-c2ccnc(NC3CC4(C3)CN(C(=O)C3(F)CCN(CC5CCN(c6ccc(C7CCC(=O)NC7=O)cc6)CC5)CC3)C4)n2)c1F (racemic) [Compound 141, Rac-N-[3-(2-tert-butyl-5-{2-[(2-{1-[(1-{4-[(3R)-2,6-dioxopiperidin-3-yl]phenyl}piperidin-4-yl)methyl]-4-fluoropiperidine-4-carbonyl}-2-azaspiro[3.3]heptan-6-yl)amino]pyrimidin-4-yl}-1,3-thiazol-4-yl)-2-fluorophenyl]propane-1-sulfonamide]	10 to 50 nM	> 70%	> 500 nM	< 30%	> 500 nM	< 30%	> 500 nM	< 30%

The next lines start with the values.

DC50 (BRAF V600E)	Dmax (BRAF V600E)	DC50 (BRAF D594G)	Dmax (BRAF D594G)	DC50 (BRAF G466V)	Dmax (BRAF G466V)	DC50 (BRAF G469A)	Dmax (BRAF G469A)	SMILES
< 10 nM	> 70%	> 500 nM	30 to 70%	> 500 nM	< 30%	> 500 nM	< 30%	CCCS(=O)(=O)Nc1cccc(-c2nc(C(C)(C)C)sc2-c2ccnc(Nc3cnn(CC4CCN(C(=O)[C@H]5CC[C@H](Oc6ccc(C7CCC(=O)NC7=O)cn6)CC5)CC4)c3)n2)c1F (mixture of isomers) [Compound 117, N-{3-[2-tert-butyl-5-(2-{[1-({1-[(1r,4r)-4-({5-[(3RS)-2,6-dioxopiperidin-3-yl]pyridin-2-yl}oxy)cyclohexanecarbonyl]piperidin-4-yl}methyl)-1H-pyrazol-4-yl]amino}pyrimidin-4-yl)-1,3-thiazol-4-yl]-2-fluorophenyl}propane-1-sulfonamide]
< 10 nM	> 70%	> 500 nM	30 to 70%	> 500 nM	< 30%	> 500 nM	< 30%	CCCS(=O)(=O)Nc1cccc(-c2nc(C(C)(C)C)sc2-c2ccnc(Nc3cnn(CC4CCN(C(=O)[C@H]5CC[C@H](Oc6ccc(C7CCC(=O)NC7=O)cc6)CC5)CC4)c3)n2)c1F (mixture of isomers) [Compound 118, N-{3-[2-tert-butyl-5-(2-{[1-({1-[(1r,4r)-4-{4-[(3RS)-2,6-dioxopiperidin-3-yl]phenoxy}cyclohexanecarbonyl]piperidin-4-yl}methyl)-1H-pyrazol-4-yl]amino}pyrimidin-4-yl)-1,3-thiazol-4-yl]-2-fluorophenyl}propane-1-sulfonamide]
10 to 50 nM	> 70%	10 to 50 nM	30 to 70%	10 to 50 nM	30 to 70%	50 to 500 nM	30 to 70%	CCCS(=O)(=O)Nc1cccc(-c2nc(C(C)(C)C)sc2-c2ccnc(N[C@H]3CC[C@@H](N4CCN(CC5CCN(c6ccc(C7CCC(=O)NC7=O)cn6)CC5)CC4)CC3)n2)c1F (mixture of isomers) [Compound 134, N-{3-[2-tert-butyl-5-(2-{[(1s,4s)-4-{4-[(1-{5-[(3RS)-2,6-dioxopiperidin-3-yl]pyridin-2-yl}piperidin-4-yl)methyl]piperazin-1-yl}cyclohexyl]amino}pyrimidin-4-yl)-1,3-thiazol-4-yl]-2-fluorophenyl}propane-1-sulfonamide]
< 10 nM	> 70%	10 to 50 nM	30 to 70%	< 10 nM	30 to 70%	< 10 nM	30 to 70%	CCCS(=O)(=O)Nc1cccc(-c2nc(C(C)(C)C)sc2-c2ccnc(N[C@H]3CC[C@@H](N4CCN(C(=O)C5CCN(c6ccc(C7CCC(=O)NC7=O)cn6)CC5)CC4)CC3)n2)c1F (mixture of isomers) [Compound 138, N-{3-[2-tert-butyl-5-(2-{[(1s,4s)-4-[4-(1-{5-[(3RS)-2,6-dioxopiperidin-3-yl]pyridin-2-yl}piperidine-4-carbonyl)piperazin-1-yl]cyclohexyl]amino}pyrimidin-4-yl)-1,3-thiazol-4-yl]-2-fluorophenyl}propane-1-sulfonamide]
